Experimental data published in ChEMBL document CHEMBL5724914, “Linking interpersonal differences in gut microbiota composition and drug biotransformation activity” (2024).

Tests used:
[1] = The drug is tested on Z-028 corresponding to mouse gut metagenome with ENA study accession number: PRJEB37062 and ENA sample accession number: ERS12561827 for biotransformation under anaerobic condition. The drug concentrations were measured over 9 timepoints collected between 0 and 24 hours of incubation by liquid-chromatography-coupled mass spectrometry (LC–MS); settings: 2 µM
[2] = The drug is tested on Z-026 corresponding to metagenome with ENA study accession number: PRJEB37062 and ENA sample accession number: ERS12561825 for biotransformation under anaerobic condition. The drug concentrations were measured over 9 timepoints collected between 0 and 24 hours of incubation by liquid-chromatography-coupled mass spectrometry (LC–MS); settings: 2 µM
[3] = The drug is tested on Z-017 corresponding to mouse gut metagenome with ENA study accession number: PRJEB37062 and ENA sample accession number: ERS12561816 for biotransformation under anaerobic condition. The drug concentrations were measured over 9 timepoints collected between 0 and 24 hours of incubation by liquid-chromatography-coupled mass spectrometry (LC–MS); settings: 2 µM
[4] = The drug is tested on Z-012 corresponding to metagenome with ENA study accession number: PRJEB37062 and ENA sample accession number: ERS12561812 for biotransformation under anaerobic condition. The drug concentrations were measured over 9 timepoints collected between 0 and 24 hours of incubation by liquid-chromatography-coupled mass spectrometry (LC–MS); settings: 2 µM
[5] = The drug is tested on Z-006 corresponding to mouse gut metagenome with ENA study accession number: PRJEB37062 and ENA sample accession number: ERS12561806 for biotransformation under anaerobic condition. The drug concentrations were measured over 9 timepoints collected between 0 and 24 hours of incubation by liquid-chromatography-coupled mass spectrometry (LC–MS); settings: 2 µM
[6] = The drug is tested on Z-003 corresponding to pig gut metagenome with ENA study accession number: PRJEB37062 and ENA sample accession number: ERS12561803 for biotransformation under anaerobic condition. The drug concentrations were measured over 9 timepoints collected between 0 and 24 hours of incubation by liquid-chromatography-coupled mass spectrometry (LC–MS); settings: 2 µM
[7] = The drug is tested on WLS-310 corresponding to human gut metagenome with ENA study accession number: PRJEB37062 and ENA sample accession number: ERS12561785 for biotransformation under anaerobic condition. The drug concentrations were measured over 9 timepoints collected between 0 and 24 hours of incubation by liquid-chromatography-coupled mass spectrometry (LC–MS); settings: 2 µM
[8] = The drug is tested on WLS-240 corresponding to human gut metagenome with ENA study accession number: PRJEB37062 and ENA sample accession number: ERS12561773 for biotransformation under anaerobic condition. The drug concentrations were measured over 9 timepoints collected between 0 and 24 hours of incubation by liquid-chromatography-coupled mass spectrometry (LC–MS); settings: 2 µM
[9] = human gut metagenome, 24 h, 2 µM
[10] = human gut metagenome, 24 h, 2 µM; remark: listed apart in the source
[11] = human gut metagenome, 24 h, 2 µM; remark: listed apart in the source
[12] = human gut metagenome, 24 h, 2 µM; remark: listed apart in the source
[13] = human gut metagenome, 24 h, 2 µM; remark: listed apart in the source
[14] = human gut metagenome, 24 h, 2 µM; remark: listed apart in the source
[15] = human gut metagenome, 24 h, 2 µM; remark: listed apart in the source
[16] = human gut metagenome, 24 h, 2 µM; remark: listed apart in the source
[17] = human gut metagenome, 24 h, 2 µM; remark: listed apart in the source
[18] = human gut metagenome, 24 h, 2 µM; remark: listed apart in the source
[19] = human gut metagenome, 24 h, 2 µM; remark: listed apart in the source
[20] = human gut metagenome, 24 h, 2 µM; remark: listed apart in the source
Note: call rule not given here.

COc1ccccc1OCC(O)COC(N)=O (stereo not given) [METHOCARBAMOL]
Bacterial Biotransformation [1]: Compound NOT metabolized | Bacterial Biotransformation [2]: Compound NOT metabolized | Bacterial Biotransformation [3]: Compound NOT metabolized | Bacterial Biotransformation [4]: Compound NOT metabolized | Bacterial Biotransformation [5]: Compound NOT metabolized | Bacterial Biotransformation [6]: Compound NOT metabolized | Bacterial Biotransformation [7]: Compound NOT metabolized | Bacterial Biotransformation [8]: Compound NOT metabolized | Bacterial Biotransformation [9]: Compound NOT metabolized | Bacterial Biotransformation [10]: Compound NOT metabolized | Bacterial Biotransformation [11]: Compound NOT metabolized | Bacterial Biotransformation [12]: Compound NOT metabolized | Bacterial Biotransformation [13]: Compound NOT metabolized | Bacterial Biotransformation [14]: Compound NOT metabolized | Bacterial Biotransformation [15]: Compound NOT metabolized | Bacterial Biotransformation [16]: Compound NOT metabolized | Bacterial Biotransformation [17]: Compound NOT metabolized | Bacterial Biotransformation [18]: Compound NOT metabolized | Bacterial Biotransformation [19]: Compound NOT metabolized | Bacterial Biotransformation [20]: Compound NOT metabolized

CC[C@@H](CO)NC(=O)[C@@H]1C=C2c3cccc4c3c(cn4C)C[C@H]2N(C)C1.O=C(O)/C=C\C(=O)O [METHYSERGIDE MALEATE]
Bacterial Biotransformation [1]: Compound NOT metabolized | Bacterial Biotransformation [2]: Compound NOT metabolized | Bacterial Biotransformation [3]: Compound NOT metabolized | Bacterial Biotransformation [4]: Compound NOT metabolized | Bacterial Biotransformation [5]: Compound NOT metabolized | Bacterial Biotransformation [6]: Compound NOT metabolized | Bacterial Biotransformation [7]: Compound metabolized | Bacterial Biotransformation [8]: Compound NOT metabolized | Bacterial Biotransformation [9]: Compound NOT metabolized | Bacterial Biotransformation [10]: Compound NOT metabolized | Bacterial Biotransformation [11]: Compound NOT metabolized | Bacterial Biotransformation [12]: Compound metabolized | Bacterial Biotransformation [13]: Compound NOT metabolized | Bacterial Biotransformation [14]: Compound metabolized | Bacterial Biotransformation [15]: Compound NOT metabolized | Bacterial Biotransformation [16]: Compound NOT metabolized | Bacterial Biotransformation [17]: Compound NOT metabolized | Bacterial Biotransformation [18]: Compound NOT metabolized | Bacterial Biotransformation [19]: Compound NOT metabolized | Bacterial Biotransformation [20]: Compound metabolized

CCN(CC)CCNC(=O)c1cc(Cl)c(N)cc1OC [METOCLOPRAMIDE]
Bacterial Biotransformation [1]: Compound NOT metabolized | Bacterial Biotransformation [2]: Compound NOT metabolized | Bacterial Biotransformation [3]: Compound NOT metabolized | Bacterial Biotransformation [4]: Compound NOT metabolized | Bacterial Biotransformation [5]: Compound NOT metabolized | Bacterial Biotransformation [6]: Compound NOT metabolized | Bacterial Biotransformation [7]: Compound NOT metabolized | Bacterial Biotransformation [8]: Compound metabolized | Bacterial Biotransformation [9]: Compound NOT metabolized | Bacterial Biotransformation [10]: Compound NOT metabolized | Bacterial Biotransformation [11]: Compound NOT metabolized | Bacterial Biotransformation [12]: Compound NOT metabolized | Bacterial Biotransformation [13]: Compound NOT metabolized | Bacterial Biotransformation [14]: Compound NOT metabolized | Bacterial Biotransformation [15]: Compound NOT metabolized | Bacterial Biotransformation [16]: Compound NOT metabolized | Bacterial Biotransformation [17]: Compound NOT metabolized | Bacterial Biotransformation [18]: Compound NOT metabolized | Bacterial Biotransformation [19]: Compound NOT metabolized | Bacterial Biotransformation [20]: Compound metabolized

Cc1ccccc1N1C(=O)c2cc(S(N)(=O)=O)c(Cl)cc2NC1C (stereo not given) [METOLAZONE]
Bacterial Biotransformation [1]: Compound NOT metabolized | Bacterial Biotransformation [2]: Compound metabolized | Bacterial Biotransformation [3]: Compound NOT metabolized | Bacterial Biotransformation [4]: Compound NOT metabolized | Bacterial Biotransformation [5]: Compound NOT metabolized | Bacterial Biotransformation [6]: Compound NOT metabolized | Bacterial Biotransformation [7]: Compound NOT metabolized | Bacterial Biotransformation [8]: Compound metabolized | Bacterial Biotransformation [9]: Compound NOT metabolized | Bacterial Biotransformation [10]: Compound NOT metabolized | Bacterial Biotransformation [11]: Compound NOT metabolized | Bacterial Biotransformation [12]: Compound NOT metabolized | Bacterial Biotransformation [13]: Compound metabolized | Bacterial Biotransformation [14]: Compound NOT metabolized | Bacterial Biotransformation [15]: Compound metabolized | Bacterial Biotransformation [16]: Compound NOT metabolized | Bacterial Biotransformation [17]: Compound NOT metabolized | Bacterial Biotransformation [18]: Compound NOT metabolized | Bacterial Biotransformation [19]: Compound metabolized | Bacterial Biotransformation [20]: Compound metabolized

COCCc1ccc(OCC(O)CNC(C)C)cc1.COCCc1ccc(OCC(O)CNC(C)C)cc1.O=C(O)C(O)C(O)C(=O)O (stereo not given) [METOPROLOL TARTRATE]
Bacterial Biotransformation [1]: Compound NOT metabolized | Bacterial Biotransformation [2]: Compound NOT metabolized | Bacterial Biotransformation [3]: Compound NOT metabolized | Bacterial Biotransformation [4]: Compound NOT metabolized | Bacterial Biotransformation [5]: Compound NOT metabolized | Bacterial Biotransformation [6]: Compound metabolized | Bacterial Biotransformation [7]: Compound metabolized | Bacterial Biotransformation [8]: Compound metabolized | Bacterial Biotransformation [9]: Compound NOT metabolized | Bacterial Biotransformation [10]: Compound NOT metabolized | Bacterial Biotransformation [11]: Compound metabolized | Bacterial Biotransformation [12]: Compound NOT metabolized | Bacterial Biotransformation [13]: Compound NOT metabolized | Bacterial Biotransformation [14]: Compound metabolized | Bacterial Biotransformation [15]: Compound NOT metabolized | Bacterial Biotransformation [16]: Compound NOT metabolized | Bacterial Biotransformation [17]: Compound metabolized | Bacterial Biotransformation [18]: Compound NOT metabolized | Bacterial Biotransformation [19]: Compound NOT metabolized | Bacterial Biotransformation [20]: Compound NOT metabolized

COc1c(C)c2c(c(O)c1C/C=C(\C)CCC(=O)OCCN1CCOCC1)C(=O)OC2 [MYCOPHENOLATE MOFETIL]
Bacterial Biotransformation [1]: Compound metabolized | Bacterial Biotransformation [2]: Compound metabolized | Bacterial Biotransformation [3]: Compound metabolized | Bacterial Biotransformation [4]: Compound metabolized | Bacterial Biotransformation [5]: Compound metabolized | Bacterial Biotransformation [6]: Compound metabolized | Bacterial Biotransformation [7]: Compound metabolized | Bacterial Biotransformation [8]: Compound metabolized | Bacterial Biotransformation [9]: Compound metabolized | Bacterial Biotransformation [10]: Compound metabolized | Bacterial Biotransformation [11]: Compound metabolized | Bacterial Biotransformation [12]: Compound metabolized | Bacterial Biotransformation [13]: Compound metabolized | Bacterial Biotransformation [14]: Compound metabolized | Bacterial Biotransformation [15]: Compound metabolized | Bacterial Biotransformation [16]: Compound metabolized | Bacterial Biotransformation [17]: Compound metabolized | Bacterial Biotransformation [18]: Compound metabolized | Bacterial Biotransformation [19]: Compound NOT metabolized | Bacterial Biotransformation [20]: Compound metabolized
